Measurements taken from patent publication US6864283B2, “Oxy-and amino-substituted tetrahydrofuryl derivatives with antitumour activity” (Pharma Mar, S.A., priority 2000, dated 2005).
Values after ≈ are worked out from the molar mass of the structure shown.

Experiments:
Type in all cases: cell-based
HT29 human colon = test: IC50 against HT29 human colon cells; details: HT-29
P388 leukemia = test: IC50 against P388 leukemia cells; details: Mus musculus
A459 human lung = test: IC50 against A459 human lung cells
MEL28 melanoma = test: IC50 against MEL28 melanoma cells; details: Homo sapiens, SK-MEL-28

- IC50 (HT29 human colon): 0.01 µg/mL (≈ 0.0334 µM)
- IC50 (P388 leukemia): 0.01 µg/mL (≈ 0.0334 µM)
- IC50 (A459 human lung): 0.01 µg/mL (≈ 0.0334 µM)
- IC50 (MEL28 melanoma): 0.01 µg/mL (≈ 0.0334 µM)
SMILES: CCCCCCCCCCCCCC[C@@H]1OC[C@H](N)[C@@H]1O [IK-8-73-4]
